Source: US5089507A, “Heterocyclic piperidinyl compounds having analgesic effect” (Dr. L. Zambeletti SpA, priority 1988, dated 1992)
Where a name gives a salt, the structure may show the parent alone.

Columns and labels:
Format in all cases: in vivo, Male Charles River mice (Swiss Strain)
mice (tail-flick) [1] = assay: Tail-flick test in mice (quantal protection); details: sc, 30 min pretreatment; for ED50: Mus musculus, 0.5 h, read-out: ANALGESIA M. TAIL-FLICK (QUANTAL) ED50; for ANALGESIA M. TAIL-FLICK (QUANTAL) ED50: 30 min
Procedure: (§1) B) Tail-flick test in mice
(§2) The methodology employed is based on that described by D'Amour and Smith, J. Pharmacol. Exp. Ther. 72, 74/1941.
(§3) Male Charles River mice (Swiss Strain), 22-34 g body weight were used. Animals were allowed food and water ad libitum and were randomized into groups of 10 prior to experimentation.
(§4) Test compounds were dissolved in either distilled water or distilled water plus 0.1M AMS and administered by the subcutaneous route in a final volume of 10 ml/Kg. Control animals received 10 ml/kg of the appropriate vehicle alone. Following a pretreatment period of 30 min., the mice were again placed under the heat source and the reaction tine re-determined.
Percentage quantal protection was determined as the number of mice in which the reaction time was doubled compared to pretreatment values, expressed as a percentage of the total number of mice in the group.

[2] = system: mice (p-phenylquinone-induced abdominal writhing); assay: P-phenylquinone-induced abdominal writhing test in mice; details: sc, 20 min pretreatment, p-phenylquinone 2 mg/Kg i.p.; for ED50: Mus musculus, 20 min, read-out: ANALGESIA M. WRITHING (GRADED) ED50
Procedure: A) P-phenylquinone-induced abdominal writhing test in mice
The methodology employed is based on that described by Sigmund et al, Proc. Soc. Exptl. Biol. 95, 729/1957, modified by Milne and Twomey, Agents and Actions, 10, 31/1980.
Male Charles River mice (Swiss Strain), 25-36 g body weight, were used. Animals were allowed food and water ad libitum and were randomized into groups of 10 prior to experimentation. Test compounds were dissolved in either distilled water or distilled water plus 0.1M AMS, and administered by the subcutaneous route in a final volume of 10 ml/Kg. Control animals received 10 ml/Kg of the appropriate vehicle alone. Following a pretreatment period of 20 min., mice were injected intraperitoneally with p-phenylquinone, 2 mg/Kg at 37° C. in a final volume of […]. […] During this period the number of abdominal writhing responses per animal were recorded where writhing consists of an intermittent contraction of the abdomen associated with hind leg extension.
The degree of antinociceptive protection afforded by the test compound was determined as the mean number of writhing responses observed in the treated group (T) expressed as a percentage of the mean number of writhing responses in the control group (C) according to the following formula:
[1-(T/C]×100% graded protection

mice (tail-flick) [3] = assay: Duration of action, M. tail-flick (graded), % activity at MTFQ ED50; details: mouse, sc
Procedure: as §1, §2, §3
as §4, with “re-determined. […]” for “re-determined.”

Compound | ED50 (mice (tail-flick) [1]) [mg/kg] | ED50 [2] [mg/kg] | ANALGESIA M. TAIL-FLICK (QUANTAL) % protection at 10 mg (mice (tail-flick) [1]; mouse) [%] | ANALGESIA M. TAIL-FLICK (QUANTAL) ED50 (mice (tail-flick) [1]; mouse) [mg/kg] | DURATION OF ACTION M. TAIL-FLICK (GRADED) % ACTIVITY AT MTFQ ED50, 30' (mice (tail-flick) [3]) [%] | DURATION OF ACTION M. TAIL-FLICK (GRADED) % ACTIVITY AT MTFQ ED50, 90' (mice (tail-flick) [3]) [%] | ANALGESIA M. WRITHING (GRADED) ED50 ([2]; mouse) [mg/kg] | ANALGESIA M. TAIL-FLICK (QUANTAL) % protection at 1.78 mg/Kg (mice (tail-flick) [1]; mouse, 1.78 mg/Kg) [%]
O=C(Cc1ccc(Cl)c(Cl)c1)N1CCC[C@@H](O)[C@@H]1CN1CCCC1 (relative stereo) [Example 7, 1-(3,4-dichlorophenyl)acetyl-2-(pyrrolidin-1-yl)methyl-3-hydroxy piperidine hydrochloride diastereoisomer A trans] | 0.825 | 0.141 |  |  |  |  |  | 
O=C(Cc1ccc(Cl)c(Cl)c1)N1CCC[C@H](O)[C@@H]1CN1CCCC1 (relative stereo) [Example 8, 1-(3,4-dichlorophenyl)acetyl-2-(pyrrolidin-1-yl)methyl-3-hydroxy piperidine hydrochloride diastereoisomer B cis] |  |  | 20 |  |  |  |  | 
CC1CCCN(C(=O)Cc2ccc(Cl)c(Cl)c2)C1CN1CCCC1 (single isomer, unassigned) [Example 1, 1-(3,4-dichlorophenyl)acetyl-2-(pyrrolidin-1-yl)methyl-3-methyl piperidine hydrochloride hemihydrate diasteroisomer A] |  | 0.093 |  | 0.405 | 87 | 68 |  | 
CC1CCCN(C(=O)Cc2ccc(Cl)c(Cl)c2)C1CN1CCCC1 (single isomer, unassigned) [Example 2, 1-(3,4-dichlorophenyl)acetyl-2-(pyrrolidin-1-yl)methyl-3-methyl piperidine hydrochloride diasteroisomer B] |  |  |  | 0.147 | 66 | 44 | 0.091 | 
CC1CCC(CN2CCCC2)N(C(=O)Cc2ccc(Cl)c(Cl)c2)C1 (single isomer, unassigned) [Example 4, 1-(3,4-dichlorophenylacetyl)-2-(pyrrolidin-1-yl)methyl-5-methyl piperidine hydrochloride diasteroisomer A] | 0.749 | 0.163 |  |  | 80 | 54 |  | 
CC1CCN(C(=O)Cc2ccc(Cl)c(Cl)c2)C(CN2CCCC2)C1 (single isomer, unassigned; diastereoisomer a) [Example 3, 1-(3,4-dichlorophenylacetyl)-2-(pyrrolidin-1-yl)methyl-4-methyl piperidine hydrochloride hemihydrate diastereoisomer A] | 0.202 | 0.149 |  |  | 86 | 17 |  | 
CC1CCCC(CN2CCCC2)N1C(=O)Cc1ccc(Cl)c(Cl)c1 (single isomer, unassigned; diastereoisomer a) [Example 5, 1-(3,4-dichlorophenyl)acetyl-2-(pyrrolidin-1-yl)methyl-6-methyl piperidine hydrochloride diastereoisomer A] | 0.135 | 0.03 |  |  | 83 | 42 |  | 
CC1CCCC(CN2CCCC2)N1C(=O)Cc1ccc(Cl)c(Cl)c1 (single isomer, unassigned; diastereoisomer a) [Example 6, 1-(3,4-dichlorophenyl)acetyl-2-(pyrrolidin-1-yl)methyl-6-methyl piperidine hydrochloride hemihydrate Diastereoisomer A] |  |  |  |  | 77 | 35 |  | 60
CC1(C)CCCN(C(=O)Cc2ccc(Cl)c(Cl)c2)C1CN1CCCC1 (stereo not drawn) [Example 9, 1-(3,4-dichlorophenyl)acetyl-2-(pyrrolidin-1-yl)methyl-3,3-dimethyl piperidine hydrochloride] | 0.136 | 0.029 |  |  | 86 | 58 |  | 
CC1(C)CCCN(C(=O)Cc2ccc(C(F)(F)F)cc2)C1CN1CCCC1 (stereo not drawn) [Example 10, 1-(4-trifluoromethylphenyl)acetyl-2-(pyrrolidin-1-yl)methyl-3,3-dimethyl piperidine hydrochloride] | 0.116 | 0.023 |  |  | 59 | 57 |  | 
CC1(C)CCC(CN2CCCC2)N(C(=O)Cc2ccc(Cl)c(Cl)c2)C1 (stereo not drawn) [Example 11, 1-(3,4-dichlorophenyl)acetyl-2-(pyrrolidin-1-yl)methyl-5,5-dimethyl piperidine hydrochloride] | 1.16 | 0.605 |  |  | 59 | 57 |  | 
CC1(C)CCCN(C(=O)Cc2ccc3c(c2)CCCC3)C1CN1CCCC1 (stereo not drawn) [Example 12, 1-(5,6,7,8-tetrahydronapht-2-yl)acetyl-2-(pyrrolidin-1-yl) methyl-3,3-dimethyl piperidine hydrochloride] | 1.21 | 0.273 |  |  | 67 | 65 |  | 
CC1(C)CCCN(C(=O)Cc2ccc3c(c2)CCCC3=O)C1CN1CCCC1 (stereo not drawn) [Example 13, 1-[1-oxo-3,4-dihydro-(2H)-napht-6-yl]acetyl-2-(pyrrolidin-1-yl)methyl-3,3-dimethyl piperidine] |  |  | 60 |  |  |  |  | 
CC1(C)CCN(C(=O)Cc2ccc(Cl)c(Cl)c2)C(CN2CCCC2)C1 (stereo not drawn) [Example 14, 1-(3,4-dichlorophenyl)acetyl-2-(pyrrolidin-1-yl)methyl-4,4-dimethyl piperidine hydrochloride] | 0.824 | 0.147 |  |  | 69 | 69 |  | 
CC1(C)CCN(C(=O)Cc2ccc(C(F)(F)F)cc2)C(CN2CCCC2)C1 (stereo not drawn) [Example 15, 1-(4-trifluoromethylphenyl)acetyl-2-(pyrrolidin-1-yl)methyl-4,4-dimethyl piperidine hydrochloride] | 1.8 | 0.242 |  |  | 58 | 63 |  | 
